Converted amounts (≈) assume the structure as drawn.
Experiments:
[1] = Absorption and fluorescence spectra, quantum yield, energy transfer; format: physicochemical; conditions: for φ (fluorescence quantum yield): uncertainty ± 15%; for λmax^abs: one-photon absorption; for λmax^t1: one-photon emission
Experimental: Absorption spectra were recorded using the Hewlett-Packard 8453 diode array spectrophotometer and fluorescence spectra were measured using the Amico-Bowman series 2 luminescence spectrometer a 1 cm standard quartz cell. The fluorescence quantum yield was determined using coumarin 307 and rhodamine B as references according to the literature method (J. N. Demas, G. A. Crosby, J. Phys. Chem. 1971, 75, 991).
(§1) (hereinafter, ‘ACCu2’), a compound of [Chemical Formula 12] (hereinafter, ‘FL’) and a compound of [Chemical Formula 13] (hereinafter, ‘IR’) in 1,4-dioxane, DMF, ethanol, EtOH/HEPES (9:1) and HEPES buffer ([HEPES]=20 mM, pH 7.0). Excitation wavelength was 420 nm. The solubility of ACCu2 in HEPES buffer ([HEPES]=20 mM, pH 7.0) as determined by the fluorescence method described in the literature (Kim, H. M.; Choo, H. J.; Jung, S. Y.; Ko, Y. G.; Park, W. H.; Jeon, S. J.; Kim, C. H.; Joo, T. H.; Cho, B. R. Chem Bio Chem 2007, 8, 553) was 8.0 μM, which was sufficient to stain cells.
To assess the origin of the spectral changes, the energy transfer efficiency (ETE) was calculated using Equation (1). The ETE was 93.4%.
In Equation (1), AIR and AIR′ are the absorbances of the IR moiety and IR, respectively, and FIR and FIR′ are the emission intensities of the IR moiety and IR, respectively, upon excitation at 373 nm.
The antenna effect in the one-photon (OP) (or TP) mode was 3.0 (or 3.1). The antenna effect was calculated by dividing the area of emission from the FL moiety upon excitation of the IR moiety at 373 nm (or 750 nm in the TP mode) by that collected from the direct excitation of FL at 461 nm (or 880 nm in the […]).

[2] = Solubility in HEPES buffer by fluorescence method; format: physicochemical; conditions: aqueous buffer; HEPES buffer ([HEPES]=20 mM, pH 7.0)
Experimental: as §1

[3] = Fluorescence titration with copper(II) ion (one-photon and two-photon); format: binding
Experimental: Referring to FIG. 3(b), when small increments of copper(II) ion were added to ACCu2 in EtOH/HEPES (9/1 viv, pH=7.0), the TPEF intensity at the channel 2 (Ired) decreased gradually without any appreciable change at the channel 1 (Iblue).
The dissociation constant (Kd) can be calculated using Equation (2): […]
wherein I is the fluorescence intensity, Ifinal is the fluorescence intensity for the CU^2+-ACCu2 complex and Iinitial is the fluorescence intensity for ACCu2.
The dissociation constants (Kd^OP and Kd^TP) of ACCu2 for the OP and TP processes can be calculated from the fluorescence titration curves shown in FIG. 3(b). […] These indicate 1:1 complexation between the probe and the cation.
Referring to FIG. 5(a), the fluorescence intensities of ACCu2 according to the present disclosure measured by the OP (one-photon) and TP (two-photon) processes decreased by 10-fold in the presence of 200 μM of copper(II) ion. […] This means that quantitative measurement of copper(II) ion is possible in this concentration range. Moreover, the Ired/Iblue ratios determined in the two-photon mode were well fitted by the titration curve obtained in the one-photon mode.

[4] = test system: HeLa cells; assay: Cell viability, CCK-8 kit; format: cell-based, human; conditions: various ACCu2 concentrations
Experimental: HeLa human cervical carcinoma cells were acquired from the ATCC (Manassas, Va., USA). The cells were cultured in DMEM (WelGene, Inc., Seoul, Korea) supplemented with heat-inactivated 10% FBS (WelGene), penicillin (100 units/mL) and streptomycin ([…]), All the cell lines were maintained in a humidified atmosphere of 5% CO2 and 95% air at 37° C. Two days before imaging, the cells were moved and plated onto glass-bottomed dishes (MatTek), For labeling, the growth medium was removed and replaced with FBS-free DMEM. The cells were incubated with 3 μM ACCu2 for 20 minutes at 37° C., washed 3 times with FBS-free DMEM and imaged.
The viability of HeLa cells with the ACCu2 concentration was measured under the incubation condition using the CCK-8 kit (Cell Counting Kit-8, Dojindo, Japan) (FIG. 7). […] Accordingly, it can be seen that the copper(II) ion concentration in living cells can be measured with minimum interference from cytotoxicity.

[5] = test system: human colon tissue; assay: Quantitative estimation of copper(II) ion in human colon tissue by TPM; conditions: for average Ired/Iblue ratio: 20 μM ACCu2
Source text: Colon slices were obtained from outpatients who underwent elective colonoscopies at the Korea University Medical Center Anam Hospital. The volunteers were recruited to participate in the experiment, which was approved by the hospital ethics committee, and all the participating patients provided informed consents. The patients who had known or suspected bleeding disorders, an international normalized ratio of prothrombin time exceeding 1.4 a platelet count of <100,000 or who had taken aspirin within the previous 5 days were excluded.
During the colonoscopy examination, tissues were obtained from malignant lesions, adenomas and normal mucosa by biopsy forceps. Normal colon mucosal and adenoma or adenocarcinoma tissues were collected from the same patient. Standard biopsy forceps (Olympus Medical Systems Corporation, Tokyo, Japan) were used to obtain paired mucosal pinch biopsy specimens from the colon. 28, 10 and 6 tissue samples were acquired from normal, polyp and cancer tissues, respectively. The tissues were placed in sterile specimen bottles containing PBS. Half of the normal tissue samples were treated with EDTA (1 M) for 40 minutes. Then, the tissue samples were stained with 20 μM ACCu2 in artificial spinal fluid for 1-2 hours at 37.8° C. and then imaged.
As a result, clinical important images were obtained at depths of 90-190 μm in the mucosal and submucosal layers, as shown in FIG. 11(a).

[6] = one-photon, excitation 373 nm, EtOH/HEPES (9:1, pH 7.0)
[7] = EDTA-treated normal colon tissue

## COCCOCCOCCOc1ccc2c(ccc3cc(C(=O)N4CCN(C(=O)c5ccc(CNC(=O)c6cc7cc8ccc(N(C)C)cc8cc7oc6=O)nc5)CC4)c(=O)oc32)c1 [ACCu2]
[1]; 1,4-Dioxane (0.164)
  φ (fluorescence quantum yield): 0.75
  λmax^abs: 380/437
  λmax^t1: 533 nm
[1]; 1,4-dioxane to H2O
  red shift in the emission spectra with solvent polarity: 69 nm
[1]; DMF (0.386)
  φ (fluorescence quantum yield): 0.54
  λmax^abs: 371/456
  λmax^t1: 577 nm
[1]; EtOH (0.654)
  φ (fluorescence quantum yield): 0.34
  λmax^abs: 379/460
  λmax^t1: 578 nm
[1]; EtOH/HEPES (9:1)
  φ (fluorescence quantum yield): 0.22
  λmax^abs: 379/465
  λmax^t1: 585 nm
[1]; FRET from IR to FL moiety, excitation at 373 nm, Equation (1)
  energy transfer efficiency (ETE): 93.4%
[1]; HEPES buffer 20 mM, pH 7.0
  φ (fluorescence quantum yield): 0.0028
  λmax^abs: 380/453
  λmax^t1: 602 nm
[1]; TP mode, 750 nm vs direct excitation 880 nm
  antenna effect: 3.1
[1]; one-photon (OP) mode, 373 nm vs direct excitation 461 nm
  antenna effect: 3.0
[1]; [6]
  decrease of area of blue emission (400-450 nm) from that of IR: 9.2 fold
  increase of area of red emission (550-650 nm) from that of FL: 3.4 fold
[1]; two-photon (TP) mode
  decrease of blue emission: 13 fold
  increase of red emission: 3.1 fold
[2]
  solubility: 8 µM (≈ 6.96 µg/mL)
[3]
  detection limit for copper ion by TPM: 0.84 µM
[3]; OP and TP processes, in the presence of 200 μM copper(II) ion
  decrease of fluorescence intensity: 10 fold
[3]; titration curve FIG. 5(b)
  copper(II) ion concentration range in which Ired/Iblue plot is linear: 0 to 0.25 µM
[4]
  viability of HeLa cells: did not affect the viability of HeLa cells
[5]; [7]
  copper(II) ion concentration: 0.0 ± 0.1 µM
  average Ired/Iblue ratio: 10.0±0.3
[5]; cancer colon tissue
  copper(II) ion concentration: 22 ± 3 µM
  average Ired/Iblue ratio: 5.2±0.6
[5]; normal colon tissue
  copper(II) ion concentration: 8.2 ± 0.3 µM
  average Ired/Iblue ratio: 8.3±0.4
[5]; polyp colon tissue
  copper(II) ion concentration: 13 ± 2 µM
  average Ired/Iblue ratio: 7.2±0.5
